# In publication PMC6723587 (Toxins, 2019):
# Read-outs that look alike come from different tables or passages of the source.
# Columns and labels:
# [1] = for the sum of DON, DON3G, 3-ADON and 15-ADON; EFSA; cited from earlier work
# [2] = in vivo
# [3] = cited from earlier work
# [4] = in vivo; remark: listed apart in the source
# [5] = pigs, cited from earlier work
# [6] = pigs, oral single dose DON3G 56 µg/kg bw; cited from earlier work
# [7] = system: human cytosolic beta-glucosidases; details: in vitro incubation; cited from earlier work
# [8] = oral single dose DON3G 116 µg/kg bw
smiles,measurement,setting,value
"CC1=C[C@H]2O[C@@H]3[C@H](O)C[C@](C)([C@@]2(CO)[C@H](O)C1=O)[C@]31CO1 [DON, deoxynivalenol]",tolerable daily intake (group-TDI),[1],1 µg/kg body weight (bw)/day
same,Fabs (fraction absorbed),"[2]; both, human, po",0.56
same,maximum percentage absorbed in the volunteers,"[2]; both, human, po",98%
same,"percentage absorbed, variation among the volunteers","[2]; both, human, po",30-98%
"CC(=O)OC[C@]12[C@H](O)C(=O)C(C)=C[C@H]1O[C@@H]1[C@H](O)C[C@@]2(C)[C@]12CO2 [15-ADON, 15-acetyldeoxynivalenol]",tolerable daily intake (group-TDI),[1],1 µg/kg body weight (bw)/day
"CC1=C[C@H]2O[C@@H]3[C@H](O[C@@H]4O[C@H](CO)[C@@H](O)[C@H](O)[C@H]4O)C[C@](C)([C@@]2(CO)[C@H](O)C1=O)[C@]31CO1 [DON3G, deoxynivalenol-3-glucoside]",detectability in urine twelve hours after administration,[3]; single dose of DON3G,not detectable
same,urine sample with the maximum excreted amount,[4],first voided urine sample
same,Fabs (fraction absorbed),[4]; po,0.53
same,Ke (excretion rate constant),[4]; po,0.018
same,maximum percentage absorbed in the volunteers,[4]; po,84%
same,"part absorbed as glucoside, % of the oral dose of DON3G",[4]; po,< 5%
same,"percentage absorbed, variation among the volunteers",[4]; po,29-84%
same,"total amount excreted unchanged in urine, % of the administered dose",[4]; po,1-5%
same,tolerable daily intake (group-TDI),[1],1 µg/kg body weight (bw)/day
same,detection in urine,[2],Neither DON3G nor DOM-1 was detected
same,part of the dose excreted in urine during the first 8 h,[5]; [8],approximately 2.5%
same,part of the dose excreted in urine during the rest of the 24-hour collection period,[5]; [8],1%
same,presence in urine after oral administration,[5],found in urine
same,detection in systemic plasma and vena porta plasma,[6],could not be detected
same,hydrolysis by human cytosolic beta-glucosidases,[7],did not hydrolyse
"CC(=O)O[C@@H]1C[C@]2(C)[C@@]3(CO)[C@H](O)C(=O)C(C)=C[C@H]3O[C@H]1[C@@]21CO1 [3-ADON, 3-acetyldeoxynivalenol]",tolerable daily intake (group-TDI),[1],1 µg/kg body weight (bw)/day
"C=C1[C@@H]2O[C@@H]3C=C(C)C(=O)[C@@H](O)[C@]3(CO)[C@@]1(C)C[C@H]2O [DOM-1, de-epoxy-deoxynivalenol]",part of total DON3G recovered in urine,[3]; after administration of DON3G,approximately 7%
same,detection in urine,[2],Neither DON3G nor DOM-1 was detected
